Converted amounts (≈) assume the structure as drawn.
Experiments:
NOD2 = NOD2 (Homo sapiens, UniProt Q9HC29); assay: NOD2 NF-κB SEAP reporter assay in HEK-Blue hNOD2 cells; conditions: for NOD2 activation at 10 μM, fold increase: 18 h, NF-κB transcriptional activity (SEAP) relative to 0.1% DMSO; for NOD2 agonist activity: compared with NOD2 agonist 3 and MDP (4 μM)
[1] = Kinetic solubility in PBS (HPLC solubility assay); conditions: aqueous buffer, kinetic from dmso stock
TLR4 = TLR4 (Homo sapiens, UniProt O00206+Q9Y6Y9); assay: TLR4 NF-κB SEAP reporter assay in HEK-Blue hTLR4 cells; conditions: for TLR4 activation at 10 μM, fold increase / TLR4 activation at 100 μM, fold increase: 18 h, NF-κB transcriptional activity (SEAP) relative to 0.1% DMSO; for concentration at which compound activated TLR4: dose-response 0.5–10 μM (17–21) or 1–100 μM (27–31); for maximum TLR4 activation: HEK-Blue hTLR4, 21 at 10 μM
[2] = PBS, Solubility sample 1, Tables S1–S3, replicate 1
[3] = PBS, Solubility sample 2, Tables S1–S3, replicate 2
[4] = PBS, solubility in PBS, kinetic solubility, HPLC solubility assay
[5] = PBS, Average solubility, Tables S1–S3, average of two samples

TLR4, sequence (O00206 24-839): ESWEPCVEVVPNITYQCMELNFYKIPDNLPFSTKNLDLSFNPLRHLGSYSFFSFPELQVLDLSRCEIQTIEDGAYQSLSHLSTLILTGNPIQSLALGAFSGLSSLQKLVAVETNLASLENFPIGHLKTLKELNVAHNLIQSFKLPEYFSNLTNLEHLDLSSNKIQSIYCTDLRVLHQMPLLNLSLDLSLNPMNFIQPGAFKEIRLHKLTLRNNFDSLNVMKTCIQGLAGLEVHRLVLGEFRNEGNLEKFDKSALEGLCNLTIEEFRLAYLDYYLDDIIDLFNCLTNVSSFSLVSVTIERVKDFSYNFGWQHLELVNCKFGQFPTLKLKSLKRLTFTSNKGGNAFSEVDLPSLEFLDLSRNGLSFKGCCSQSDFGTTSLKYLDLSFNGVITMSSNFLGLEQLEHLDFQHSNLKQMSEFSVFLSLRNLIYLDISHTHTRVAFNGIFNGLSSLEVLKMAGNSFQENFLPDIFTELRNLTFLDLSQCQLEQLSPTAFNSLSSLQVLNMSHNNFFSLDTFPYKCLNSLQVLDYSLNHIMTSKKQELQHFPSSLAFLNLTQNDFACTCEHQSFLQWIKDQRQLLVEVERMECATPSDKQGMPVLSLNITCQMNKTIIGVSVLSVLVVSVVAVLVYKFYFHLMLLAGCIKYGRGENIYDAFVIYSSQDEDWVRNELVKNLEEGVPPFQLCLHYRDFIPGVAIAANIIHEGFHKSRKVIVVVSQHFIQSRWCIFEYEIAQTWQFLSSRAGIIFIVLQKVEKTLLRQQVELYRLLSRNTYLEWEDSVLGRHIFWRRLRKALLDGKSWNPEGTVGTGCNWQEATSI
TLR4, sequence (Q9Y6Y9 17-160 limits assumed): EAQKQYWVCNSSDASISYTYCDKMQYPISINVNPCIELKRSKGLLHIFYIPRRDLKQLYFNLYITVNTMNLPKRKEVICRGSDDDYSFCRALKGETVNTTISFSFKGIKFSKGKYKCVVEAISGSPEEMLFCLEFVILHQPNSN
NOD2, sequence (Q9HC29 whole entry): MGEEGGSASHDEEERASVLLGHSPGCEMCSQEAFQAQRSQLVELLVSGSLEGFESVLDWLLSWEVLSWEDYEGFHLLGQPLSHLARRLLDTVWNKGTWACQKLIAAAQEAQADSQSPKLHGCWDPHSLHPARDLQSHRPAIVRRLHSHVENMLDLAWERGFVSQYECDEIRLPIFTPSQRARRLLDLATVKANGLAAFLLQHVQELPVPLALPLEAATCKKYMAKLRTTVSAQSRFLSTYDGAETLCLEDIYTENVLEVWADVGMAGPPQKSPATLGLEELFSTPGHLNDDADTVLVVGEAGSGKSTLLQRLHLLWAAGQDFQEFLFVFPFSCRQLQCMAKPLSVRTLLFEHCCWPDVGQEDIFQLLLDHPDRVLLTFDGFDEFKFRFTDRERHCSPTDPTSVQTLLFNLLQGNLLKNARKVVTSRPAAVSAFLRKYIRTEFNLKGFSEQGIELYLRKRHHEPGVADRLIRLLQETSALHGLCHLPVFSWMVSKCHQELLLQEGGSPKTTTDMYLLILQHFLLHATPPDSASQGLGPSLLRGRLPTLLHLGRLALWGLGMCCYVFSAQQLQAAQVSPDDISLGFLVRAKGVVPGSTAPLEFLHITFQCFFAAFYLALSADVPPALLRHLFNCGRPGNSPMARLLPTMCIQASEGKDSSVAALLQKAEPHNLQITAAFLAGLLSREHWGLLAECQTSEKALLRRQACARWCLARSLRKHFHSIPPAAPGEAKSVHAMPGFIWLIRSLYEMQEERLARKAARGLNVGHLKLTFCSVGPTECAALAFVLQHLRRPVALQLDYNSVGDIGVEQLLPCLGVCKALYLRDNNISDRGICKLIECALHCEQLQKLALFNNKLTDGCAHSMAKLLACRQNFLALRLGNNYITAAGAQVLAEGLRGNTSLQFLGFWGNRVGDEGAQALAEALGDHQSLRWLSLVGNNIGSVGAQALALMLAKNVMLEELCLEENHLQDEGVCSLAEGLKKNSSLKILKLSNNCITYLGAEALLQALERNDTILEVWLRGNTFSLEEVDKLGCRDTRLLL

SMILES | NOD2 activation at 10 μM, fold increase (NOD2) [fold increase] | solubility ([1]; Average solubility, Tables S1–S3, average of two samples) [µM] | solubility ([1]; Solubility sample 1, Tables S1–S3, replicate 1) [µM] | solubility ([1]; Solubility sample 2, Tables S1–S3, replicate 2) [µM] | solubility ([1]; solubility in PBS, kinetic solubility, HPLC solubility assay) [µM] | TLR4 activation at 10 μM, fold increase (TLR4) [fold increase] | TLR4 activation at 100 μM, fold increase (TLR4) [fold increase] | NOD2 agonist activity (NOD2) | solubility [1, 2] [µM] | solubility [1, 3] [µM] | solubility [1, 4] [µM] | concentration at which compound activated TLR4 (TLR4) [µM] | solubility [1, 5] [µM] | maximum TLR4 activation (TLR4) [fold]
CCOC(=O)[C@@H](CCC(=O)NCCCOCCOCCOCCCNC(=O)CSc1nc2c([nH]c3ccccc32)c(=O)n1-c1ccccc1)NC(=O)[C@@H](NC(=O)CNC(=O)/C=C/c1ccc(O)c(OC)c1)C(C)C [Compound 30, Ethyl (R)-21-((S)-2-(2-((E)-3-(4-Hydroxy-3-methoxyphenyl)acrylamido)acetamido)-3-methylbutanamido)-2,18-dioxo-1-((4-oxo-3-phenyl-4,5-dihydro-3H-pyrimido[5,4-b]indol-2-yl)thio)-7,10,13-trioxa-3,17-diazadocosan-22-oate] | 1.55 | 122 (≈ 128 µg/mL) | 124 (≈ 129 µg/mL) | 121 (≈ 126 µg/mL) | 122 (≈ 128 µg/mL) | 1.05 | 1.36 | – | – | – | – | – | – | –
CCOC(=O)[C@H](CCC(=O)NCCNC(=O)Cc1ccc(C(C(=O)NC2CCCC2)N(C(=O)c2cc(-c3ccccc3)n(-c3ccccc3)n2)c2ccc3c(c2)CCC3)cc1)NC(=O)[C@@H](NC(=O)CNC(=O)/C=C/c1ccc(O)c(OC)c1)C(C)C (stereo partly drawn) [Compound 17, Ethyl N ^5-(2-(2-(4-(2-(Cyclopentylamino)-1-(N-(2,3-dihydro-1H-inden-5-yl)-1,5-diphenyl-1H-pyrazole-3-carboxamido)-2-oxoethyl)phenyl)acetamido)ethyl)-N ^2-((E)-3-(4-hydroxy-3-methoxyphenyl)acryloyl)glycyl-L-valyl-D-glutaminate] | 3.66 | – | – | – | – | 5.10 | – | comparable efficiency to MDP | 0.68 (≈ 0.796 µg/mL) | 0.83 (≈ 0.971 µg/mL) | 0.76 (≈ 0.889 µg/mL) | 1.0 | – | –
CCOC(=O)[C@@H](CCC(=O)NCCCOCCOCCOCCCNC(=O)Cc1ccc(C(C(=O)NC2CCCC2)N(C(=O)c2cc(-c3ccccc3)n(-c3ccccc3)n2)c2ccc3c(c2)CCC3)cc1)NC(=O)[C@@H](NC(=O)CNC(=O)/C=C/c1ccc(O)c(OC)c1)C(C)C (stereo partly drawn) [Compound 20, Ethyl (21R)-1-(4-(2-(Cyclopentylamino)-1-(N-(2,3-dihydro-1H-inden-5-yl)-1,5-diphenyl-1H-pyrazole-3-carboxamido)-2-oxoethyl)phenyl)-21-((S)-2-(2-((E)-3-(4-hydroxy-3-methoxyphenyl)acrylamido)acetamido)-3-methylbutanamido)-2,18-dioxo-7,10,13-trioxa-3,17-diazadocosan-22-oate] | 3.53 | – | – | – | – | 2.68 | – | comparable efficiency to MDP | 1.61 (≈ 2.14 µg/mL) | 1.38 (≈ 1.84 µg/mL) | 1.5 (≈ 2 µg/mL) | 5 | – | –
O=C(O)Cc1ccc(C(C(=O)NC2CCCC2)N(C(=O)c2cc(-c3ccccc3)n(-c3ccccc3)n2)c2ccc3c(c2)CCC3)cc1 (stereo not shown) [Compound 4, reference compound] | – | – | – | – | – | 7.23 | – | – | 249 (≈ 159 µg/mL) | 226 (≈ 145 µg/mL) | 238 (≈ 152 µg/mL) | – | 238 (≈ 152 µg/mL) | 7.23
O=C(O)CSc1nc2c([nH]c3ccccc32)c(=O)n1-c1ccccc1 [Compound 6, reference compound] | – | – | – | – | – | 1.22 | 3.10 | – | 270 (≈ 94.8 µg/mL) | 238 (≈ 83.7 µg/mL) | 254 (≈ 89.3 µg/mL) | – | 254 (≈ 89.3 µg/mL) | 3.10
